In patent US20230121086A1, “RORgT INHIBITOR, PREPARATION METHOD THEREOF AND USE THEREOF” (SUNSHINE LAKE PHARMA CO., LTD., priority 2020, published 2023):
Marks after values point to notes of the source that are not given here.

Key:
[1] = Pharmacokinetic evaluation in ICR mice; assay type: in vivo; settings: mouse, plasma, po
[2] = tested on: inflammatory factor IL-17; experiment: LPS-induced mouse blood inflammatory factor IL-17 model; assay type: in vivo, BALB/c mice; settings: for IL-17 (pg/ml): plasma 4 hours after LPS
[3] = tested on: inflammatory factor IL-17; experiment: IMQ-induced mouse psoriasis model, IL-17 in the ear; assay type: in vivo, c57bl/6 mice
[4] = Stability in rat liver microsomes; assay type: in vitro ADME; settings: rat, liver microsomes, pH 7.4
[5] = tested on: IMQ-induced mouse psoriasis model; experiment: IMQ-induced mouse psoriasis model, ear weight; assay type: in vivo, c57bl/6 mice
[6] = Stability in human liver microsomes; assay type: in vitro ADME
RORγt = target: T1, RORγt (Homo sapiens, UniProt P51449); experiment: Fluorescence resonance energy transfer (FRET) test, inhibitory activity of RORγt; assay type: biochemical; settings: FRET, B-RORγt LBD / Biotin-SRC1; read-out: IC50
T1 construct: […]
T1 sequence (P51449 269-508 limits assumed): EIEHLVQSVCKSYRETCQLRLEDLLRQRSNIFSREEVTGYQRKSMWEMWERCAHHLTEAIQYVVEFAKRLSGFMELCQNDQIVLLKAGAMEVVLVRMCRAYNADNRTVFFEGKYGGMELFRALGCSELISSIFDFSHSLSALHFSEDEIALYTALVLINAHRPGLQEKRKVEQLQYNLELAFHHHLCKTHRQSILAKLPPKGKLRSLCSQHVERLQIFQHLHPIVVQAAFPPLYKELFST

**Q.** For `CCS(=O)(=O)c1ccc([C@H](CC#N)NC(=O)c2ccc(N3C[C@@H](Oc4ccc(C(F)(F)F)cc4)C[C@H]3COC(F)F)cc2)cc1` [Example 47, N—((S)-2-cyano-1-(4-(ethylsulfonyl)phenyl)ethyl)-4-((2S,4S)-2-((difluoromethoxy)methyl)-4-(4-(trifluoromethyl)phenoxy)pyrrolidin-1-yl)benzamide], which AUC(0-t) ([1]; 5 mg/kg) is on record?
**A.** Its AUC(0-t) is 23.5 µM·h.

**Q.** And the Cmax ([1]; 5 mg/kg)?
**A.** The Cmax was 2400 nM.

**Q.** And the half-life ([1]; 5 mg/kg)?
**A.** Its half-life is 11.1 h.

**Q.** And the bioavailability ([1]; p.o. 5 mg/kg vs i.v. 1 mg/kg, read-out: Oral bioavailability (F))?
**A.** Its bioavailability is 66%.

**Q.** What about the “Effect on LPS-induced mouse blood inflammatory factor IL-17” value [2] of the same compound?
**A.** Its value is “significantly reduce”.

**Q.** And the Inhibition rate % ([2]; Table 6, 15 mg/kg)?
**A.** Its Inhibition rate % is 25.22%.

**Q.** What about the “IL-17 (pg/ml)” value ([2]; Table 6, 15 mg/kg, model group 141.35) of the same compound?
**A.** The value was 104.98 * pg/ml.

**Q.** And the Inhibition rate % ([2]; Table 7, 30 mg/kg)?
**A.** Its Inhibition rate % is 51%.

**Q.** What about the “IL-17 (pg/ml)” value ([2]; Table 7, 30 mg/kg, model group 174.69) of the same compound?
**A.** The value was 83.18 * pg/ml.

**Q.** And the Inhibition rate % ([2]; Table 8, 15 mg/kg)?
**A.** Its Inhibition rate % is 28.21%.

**Q.** And the “IL-17 (pg/ml)” value ([2]; Table 8, 15 mg/kg, model group 81.33)?
**A.** The value was 56.69 ** pg/ml.

**Q.** And the “Inhibition rate (IL-17 in the ear)” value ([3]; 90 mg/kg)?
**A.** Its value is 55.38%.

**Q.** And the “IL-17 Concentration (pg/μg protein)” value ([3]; 90 mg/kg, ear homogenate supernatant, model group 29.78, normal group 0.00)?
**A.** Its value is 13.29 ** pg/μg protein.

**Q.** What about the “Effect on the secretion of IL-17 in the ear of mice compared with the model group” value ([3]; P<0.05) of the same compound?
**A.** The value was “significantly reduce”.

**Q.** What about the half-life at 1.5 μM ([4]; 0.5 mg protein/mL, 1.5 μM compound, 37° C., NADPH, read-out: Rat Half-life t1/2) of the same compound?
**A.** Its half-life at 1.5 μM is 22.4 h.

**Q.** What about the CLint scaled at 1.5 μM ([4]; intrinsic hepatic clearance inferred from microsomal incubation, read-out: Rat Clearance rate) of the same compound?
**A.** The CLint scaled at 1.5 μM was 1.9 mL/min/kg.

**Q.** And the “Inhibition rate % (ear weight)” value ([5]; 90 mg/kg, oral gavage)?
**A.** Its value is 19%.

**Q.** And the “Average ear weight (mg)” value ([5]; 90 mg/kg, oral gavage, 10 days modeling, model group 28.12, normal group 13.03)?
**A.** Its value is 25.20* mg.

**Q.** What about the “Effect on the ear weight of mice compared with the model group” value ([5]; P<0.05) of the same compound?
**A.** The value was “significantly reduce”.

**Q.** And the half-life at 1.5 μM ([6]; pH 7.4, 0.5 mg protein/mL, 1.5 μM compound, 37° C., NADPH, read-out: Human Half-life t1/2)?
**A.** Its half-life at 1.5 μM is 3.5 h.

**Q.** And the CLint scaled at 1.5 μM ([6]; pH 7.4, intrinsic hepatic clearance inferred from microsomal incubation, read-out: Human Clearance rate)?
**A.** The CLint scaled at 1.5 μM was 8.3 mL/min/kg.

**Q.** And the IC50 (RORγt)?
**A.** Its IC50 is 0.01 µM.
